According to patent US11072588B2, “Barbituric acid derivatives comprising cationic and lipophilic groups” (UNIVERSITETET I TROMSØ—NORGES ARKTISKE UNIVERSITET, priority 2017, dated 2021):
Values after ≈ are worked out from the molar mass of the structure shown. Read-outs that look alike come from different tables or passages of the source.

What was measured:
E. faecium 50758899 = test: MIC, multi-resistant clinical isolate; assay type: cell-based, Enterococcus faecium; conditions: for MIC: Enterococcus faecium, read-out: Antimicrobial activity (MIC); for selectivity index (EC50/MIC): RBC EC50 / MIC
Method: (§1) Working solutions of the test derivatives were prepared with up to 100% DMSO and stored at −20° C. If necessary, the solutions were heated to 40-80° C. before testing to facilitate complete dissolution. Double-distilled water was used in all dilutions prepared. […] A microdilution susceptibility test was used for MIC determination according to Clinical and Laboratory Standards Institute, “Methods for Dilution Antimicrobial Sisceptibility Tests for Bacteria That Graw Aerobically”, Approved Standard M07-A9, edition 2012, with modifications as described by Igumnova et al (Bioorg Med Chem, 2016, 24 (22), 5884-5894).
(§2) Briefly, the bacterial inoculum was adjusted to approximately 2.5-3×10^4 cells/mL in Mueller-Hinton broth (MHB, Difco Laboratories, USA), and incubated in a ratio of 1:1 with test derivatives in polystyrene 96-well flat-bottom microplates (NUNC, Roskilde, Denmark). Positive growth control (without test derivatives) and negative control (without bacteria) were included. The reference antibiotic was oxytetracycline hydrochloride (Sigma Aldrich, Saint Louis, Mo., USA). The microplates were incubated in an EnVision microplate reader (Perkin-Elmer, Turku, Finland) placed in an incubator set to 35° C. for 48 h. The MIC value was defined as the lowest concentration of derivative resulting in no bacterial growth as determined by OD600 measurement. All derivatives were tested in three parallels.
(§3) The MIC was determined as explained above with some exceptions; working solutions of test derivatives were prepared from concentrated DMSO stocks stored at room temperature, the density of the bacterial inoculum was increased 40× to 1-1.2×10^6 cells/mL, enterococci were incubated in Brain Heart Infusion broth (BHIB, Difco Laboratories, USA), the microplates were incubated for 24 h, and the derivatives were tested in four parallels.

E. faecium 50673722 = test: MIC, multi-resistant clinical isolate; assay type: cell-based, Enterococcus faecium; conditions: for MIC: Enterococcus faecium, read-out: Antimicrobial activity (MIC); for selectivity index (EC50/MIC): RBC EC50 / MIC
Method: as §1, §2, §3

E. faecium K36-18 = test: MIC, multi-resistant clinical isolate; assay type: cell-based, Enterococcus faecium; conditions: for MIC: Enterococcus faecium, K3618, read-out: Antimicrobial activity (MIC); for selectivity index (EC50/MIC): RBC EC50 / MIC, E. faecium K36-18
Method: as §1, §2, §3

E. faecium 50901530 = test: MIC, multi-resistant clinical isolate; assay type: cell-based, Enterococcus faecium; conditions: for MIC: Enterococcus faecium, read-out: Antimicrobial activity (MIC); for selectivity index (EC50/MIC): RBC EC50 / MIC
Method: as §1, §2, §3

E. faecium TUH50-22 = test: MIC, multi-resistant clinical isolate; assay type: cell-based, Enterococcus faecium; conditions: for MIC: Enterococcus faecium, TUH5022, read-out: Antimicrobial activity (MIC); for selectivity index (EC50/MIC): RBC EC50 / MIC
Method: as §1, §2, §3

[1] = Determination of haemolytic activity; assay type: cell-based; conditions: human red blood cells (washed, from heparinized fresh blood); human RBCs, 1 h, 37° C.; read-out: RBC: haemolytic activity against human RBCs (EC50)
Method: Hemolysis was determined using a heparinized fraction (1000 IU/mL) of freshly drawn blood. Blood collected in EDTA containing test tubes (Vacutest®, KIMA, Arzergrande, Italy) was used for determination of the hematocrit (hct). The heparinized blood was washed 3× with pre-warmed PBS and adjusted to a final hct of 4%. Derivatives in DMSO (50 mM) were added to a 96-well polypropylene V-bottom plate (NUNC, Fisher Scientific, Oslo, Norway) and serially diluted. The test concentration range was 500-4 μM with DMSO contents ≤1%. A solution of 1% triton X-100 was used as positive control for 100% hemolysis. As negative control a solution of 1% DMSO in PBS buffer was included. No signs of DMSO toxicity were detected. RBCs (1% v/v final concentration) were added to the well plate and incubated at 37° C. and 800 rpm for 1 h. After centrifugation (5 min, 3000 g), 100 μL of each well were transferred to a 96-well flat bottom plate and absorbance was measured at 545 nm with a microplate reader (VersaMax™, Molecular Devices, Sunnyvale, Calif., USA). The percentage of hemolysis was calculated as the ratio of the absorbance in the derivative-treated and surfactant treated samples, corrected for the PBS background. Three independent experiments were performed and EC50 values are presented as averages.

[2] = system: panel of 30 multi-resistant clinical isolates of Gram-positive and Gram-negative bacteria; test: MIC screening, ranges over the panel of clinical isolates; assay type: cell-based
Method: as §1, §2, §3

[3] = system: human metastatic melanoma (A2058, ATCC CRL-11147) cells; test: Anti-cancer activity against A2058 cells; assay type: cell-based; conditions: A2058, read-out: Anti-cancer IC50
Method: Cytotoxicity of the test compounds was evaluated after 72 hour exposure to human metastatic melanoma (A2058, ATCC CRL-11147) cells.
A2058 cells were grown overnight (2,000 cells/well), and then incubated with the test compounds (range of concentrations) diluted in MEM Earle's supplemented with gentamycin (10 μg/mL), non-essential amino acids (1%), sodium pyruvate (1 mM), L-alanyl-Lglutamine (2 mM), but without FBS (total volume was 100 μl) for […]. Ten μL of CellTiter 96® AQueous One Solution Reagent (Promega, Madison, Wis., USA) was added, and the plates were then further incubated for 1 hour.
Absorbance was measured at 485 nm in a DTX 880 Multimode Detector. Results were calculated as % survival compared to negative (assay media) and positive (Triton X-100; Sigma-Aldrich) controls.

K. pneumoniae K47-25 = test: MIC, multi-resistant clinical isolate; assay type: cell-based, Klebsiella pneumoniae; conditions: for MIC: Klebsiella pneumoniae, K4725, 24 h, read-out: Antimicrobial activity (MIC)
A. baumanii K63-58 = test: MIC, multi-resistant clinical isolate; assay type: cell-based, Acinetobacter baumannii; conditions: A. baumanii K63-58, resistant to colistin; for MIC: Acinetobacter baumannii, K6358, 24 h, read-out: Antimicrobial activity (MIC); for selectivity index (EC50/MIC): RBC EC50 / MIC
Method: as §1, §2, §3

A. baumanii K55-13 = test: MIC, multi-resistant clinical isolate; assay type: cell-based, Acinetobacter baumannii; conditions: for MIC: Acinetobacter baumannii, K5513, read-out: Antimicrobial activity (MIC); for selectivity index (EC50/MIC): RBC EC50 / MIC
Method: as §1, §2, §3

A. baumanii K44-35 = test: MIC, multi-resistant clinical isolate; assay type: cell-based, Acinetobacter baumannii; conditions: for MIC: Acinetobacter baumannii, K4435, read-out: Antimicrobial activity (MIC); for selectivity index (EC50/MIC): RBC EC50 / MIC
Method: as §1, §2, §3

A. baumanii K12-21 = test: MIC, multi-resistant clinical isolate; assay type: cell-based, Acinetobacter baumannii; conditions: for MIC: Acinetobacter baumannii, K1221, read-out: Antimicrobial activity (MIC); for selectivity index (EC50/MIC): RBC EC50 / MIC
Method: as §1, §2, §3

A. baumanii K47-42 = test: MIC, multi-resistant clinical isolate; assay type: cell-based, Acinetobacter baumannii; conditions: for MIC: Acinetobacter baumannii, K4742, read-out: Antimicrobial activity (MIC); for selectivity index (EC50/MIC): RBC EC50 / MIC
Method: as §1, §2, §3

Row | Compound | MIC (E. faecium 50758899) | selectivity index (EC50/MIC) (E. faecium 50758899) | MIC (E. faecium 50673722) | selectivity index (EC50/MIC) (E. faecium 50673722) | MIC (E. faecium K36-18) | selectivity index (EC50/MIC) (E. faecium K36-18) | MIC (E. faecium 50901530) | selectivity index (EC50/MIC) (E. faecium 50901530) | MIC (E. faecium TUH50-22) | selectivity index (EC50/MIC) (E. faecium TUH50-22) | EC50 at 1 h [1] | IC50 [3] | MIC (A. baumanii K63-58) | selectivity index (EC50/MIC) (A. baumanii K63-58) | MIC (A. baumanii K55-13) | selectivity index (EC50/MIC) (A. baumanii K55-13) | MIC (A. baumanii K44-35) | selectivity index (EC50/MIC) (A. baumanii K44-35) | MIC (A. baumanii K12-21) | selectivity index (EC50/MIC) (A. baumanii K12-21) | further results
1 | NCCCCN1C(=O)N(CCCCN)C(=O)C(Cc2ccc(F)c3ccccc23)(Cc2ccc(F)c3ccccc23)C1=O [7(v), 1,3-bis(4-aminobutyl)-5,5-bis((4-fluoronaphtalen-1-yl)methyl)pyrimidin-2,4,6(1H,3H,5H)-trione] | 8 µg/mL (≈ 13.6 µM) | (20) | 8 µg/mL (≈ 13.6 µM) | (20) | 8 µg/mL (≈ 13.6 µM) | (20) | 4 µg/mL (≈ 6.82 µM) | (40) | 4 µg/mL (≈ 6.82 µM) | (40) | 160 µg/mL (≈ 273 µM) | 1 µg/mL (≈ 1.7 µM) | 16 µg/mL (≈ 27.3 µM) | (10) | 32 µg/mL (≈ 54.5 µM) | (5) | 32 µg/mL (≈ 54.5 µM) | (5) | 32 µg/mL (≈ 54.5 µM) | (5) | MIC ([2]; Enterococcus faecium, read-out: MIC values against the Gram-positive isolates of S. aurues and E. faecium): 4 to 16 µg/mL (≈ 6.82 to 27.3 µM); MIC (K. pneumoniae K47-25): > 32 µg/mL; MIC (A. baumanii K47-42): 32 µg/mL (≈ 54.5 µM); selectivity index (EC50/MIC) (A. baumanii K47-42): (5)
2 | N=C(N)NCCCCN1C(=O)N(CCCCNC(=N)N)C(=O)C(Cc2cc(Br)cc(Br)c2)(Cc2cc(Br)cc(Br)c2)C1=O [8(ii), 1,1′-(4,4′-(5,5-bis(3,5-dibromobenzyl)-2,4,6-trioxodihydropyrimidine-1,3(2H,4H)-diyl)bis(butane-4,1-diyl))diguanidine] | 4 µg/mL (≈ 4.7 µM) | (14) | 4 µg/mL (≈ 4.7 µM) | (14) | 4 µg/mL (≈ 4.7 µM) | (14) | 2 µg/mL (≈ 2.35 µM) | (28) | 2 µg/mL (≈ 2.35 µM) | (28) | 56 µg/mL (≈ 65.9 µM) | 2 µg/mL (≈ 2.35 µM) | 4 µg/mL (≈ 4.7 µM) | (14) | 8 µg/mL (≈ 9.41 µM) | (7) | 4 µg/mL (≈ 4.7 µM) | (14) | 4 µg/mL (≈ 4.7 µM) | (14) | MIC ([2]; read-out: MIC values against all the 30 multi-resistant clinical isolates): 2 to 16 µg/mL (≈ 2.35 to 18.8 µM); MIC (K. pneumoniae K47-25; K. pneumoniae K47-25, resistant to colistin): 4 µg/mL (≈ 4.7 µM); selectivity index (EC50/MIC) (K. pneumoniae K47-25; RBC EC50 / MIC, K. pneumoniae K47-25, resistant to colistin): (14); MIC (A. baumanii K47-42): 4 µg/mL (≈ 4.7 µM); selectivity index (EC50/MIC) (A. baumanii K47-42): (14)
